Test results taken from patent publication US20100317621A1, “BETA-LACTAMASE INHIBITORS” (priority 2007, published 2010).
Counter-ions that a name gives are not always drawn. Like-named read-outs stand apart in the source and are kept apart here.

Key:
Test in all cases: biochemical
CTXM-15 β-lactamase = biological target: T1, CTXM-15 β-lactamase (Escherichia coli, UniProt Q9EXV5); type: biochemical; conditions: crude enzyme extract, 10 min preincubation at 37° C., nitrocefin 100 μM, PBS pH 7.0; read-out: CTXM-15 IC50 Range
T1 construct: The β-lactamases were extracted by four cycles of freezing and thawing followed by centrifugation; endogenous in cells; host or cells: Escherichia coli cells containing CTXM-15 (crude freeze-thaw extract)
Method: (§1) Isolation of β-lactamases. Crude β-lactamase extracts were prepared from 20 ml overnight cultures with shaking. Escherichia coli cells containing SHV-5 or CTXM-15 and Enterobacter cloacae cells containing P99 were further diluted 10-fold and grown to mid-log phase (OD at 600 nm, 0.5-0.8) in Mueller-Hinton II (MH-II) broth at 37° C. The cells were pelleted at 5000 g, washed and resuspended in 2 mL PBS pH 7.0. The β-lactamases were extracted by four cycles of freezing and thawing followed by centrifugation. β-lactamase activity in the extracts was measured with the chromogenic cephalosporin nitrocefin. The amount of protein in each β-lactamase preparation was determined by the bicinchoninic acid (BCA) assay.
(§2) β-lactamase Inhibition. To determine the level of inhibition of β-lactamase enzymes, compounds were diluted in PBS at pH 7.0 to yield concentrations between 100 and 0.005 μM in microtiter plates. An equal volume of diluted enzyme stock was added, and the plates were incubated at 37° C. for 10 min. Nitrocefin solution was then dispensed as substrate into each well at a final concentration of 100 μM, and the plates were immediately read with the kinetic program at 486 nm for 10 min on the SPECTRAMAX® Plus^384 (high-throughput microplate spectrophotometer; Molecular Devices Corp., Sunnyvale, Calif.). Maximum rates of metabolism were then compared to those in control wells (without inhibitors), and percentages of enzyme inhibition were calculated for each concentration of inhibitor. The concentration of inhibitor needed to reduce the initial rate of hydrolysis of substrate by 50% (IC50) was calculated as the residual activity of β-lactamase at 486 nm using the SoftMax Pro 5.0 software (Molecular Devices Corp.).

P99 AmpC β-lactamase = biological target: T2, P99 AmpC β-lactamase (Enterobacter cloacae, UniProt P05364); type: biochemical
T2 construct: The β-lactamases were extracted by four cycles of freezing and thawing followed by centrifugation; endogenous in cells; host or cells: Enterobacter cloacae cells containing P99 (crude freeze-thaw extract)
Method: as §1, §2

SHV-5 β-lactamase = biological target: T3, SHV-5 β-lactamase (Klebsiella pneumoniae, UniProt P0A3M1); type: biochemical, Escherichia coli
T3 construct: The β-lactamases were extracted by four cycles of freezing and thawing followed by centrifugation; endogenous in cells; host or cells: Escherichia coli cells containing SHV-5 (crude freeze-thaw extract)
Method: as §1, §2

[1] = crude enzyme extract, 10 min preincubation at 37° C., nitrocefin 100 μM, PBS pH 7.0, read-out: P99 AmpC IC50 Range
[2] = crude enzyme extract, 10 min preincubation at 37° C., nitrocefin 100 μM, PBS pH 7.0, read-out: SHV-5 IC50 Range

T3 sequence (P0A3M1 22-286): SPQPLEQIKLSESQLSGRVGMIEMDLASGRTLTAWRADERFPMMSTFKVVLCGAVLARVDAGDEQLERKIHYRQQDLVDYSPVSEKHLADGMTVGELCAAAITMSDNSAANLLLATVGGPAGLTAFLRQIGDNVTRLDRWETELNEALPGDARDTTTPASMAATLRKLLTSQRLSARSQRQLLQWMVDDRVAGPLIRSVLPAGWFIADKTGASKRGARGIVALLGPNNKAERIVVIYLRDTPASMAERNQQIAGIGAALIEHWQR
T1 sequence (Q9EXV5 29-291): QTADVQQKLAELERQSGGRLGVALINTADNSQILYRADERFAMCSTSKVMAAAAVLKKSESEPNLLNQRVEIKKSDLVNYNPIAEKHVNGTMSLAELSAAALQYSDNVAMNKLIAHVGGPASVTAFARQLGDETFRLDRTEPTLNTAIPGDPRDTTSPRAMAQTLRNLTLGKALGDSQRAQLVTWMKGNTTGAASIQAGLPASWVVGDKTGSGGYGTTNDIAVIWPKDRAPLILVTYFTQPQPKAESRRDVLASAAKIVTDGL
T2 sequence (P05364 21-381): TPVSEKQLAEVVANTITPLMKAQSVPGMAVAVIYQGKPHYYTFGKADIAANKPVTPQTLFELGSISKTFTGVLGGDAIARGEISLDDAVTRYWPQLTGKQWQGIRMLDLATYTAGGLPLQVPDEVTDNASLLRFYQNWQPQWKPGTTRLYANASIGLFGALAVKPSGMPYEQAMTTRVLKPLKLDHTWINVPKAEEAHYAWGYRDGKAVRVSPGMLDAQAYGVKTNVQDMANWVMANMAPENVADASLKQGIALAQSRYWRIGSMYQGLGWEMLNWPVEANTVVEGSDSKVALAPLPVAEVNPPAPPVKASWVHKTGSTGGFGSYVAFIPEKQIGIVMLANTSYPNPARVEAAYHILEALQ

Structure (SMILES) | IC50 (CTXM-15 β-lactamase) | IC50 (P99 AmpC β-lactamase; [1]) | IC50 (SHV-5 β-lactamase; [2]) | IC50 (P99 AmpC β-lactamase) | IC50 (SHV-5 β-lactamase)
O=C(Cc1cccc(C(F)(F)F)c1)N[C@@H](Cc1cccc(C(=O)O)c1)B(O)O [Example 8, (1R)-1-(3-Trifluoromethylphenylacetylamino)-2-(3-carboxyphenyl)ethyl-1-boronic acid] | 0.1 to 1 µM | > 1 µM | 0.1 to 1 µM | – | –
CN1CCC(Oc2cccc(CC(=O)NC(Cc3cccc(C(=O)O)c3)B(O)O)c2)C1 [Example 28, (1R)-1-(2-[3-(1-methyl-pyrrolidin-3-yloxy)-phenyl]-acetylamino)-2-(3-carboxyphenyl)ethyl-1-boronic acid] | 0.1 to 1 µM | – | – | < 0.1 µM | 0.1 to 1 µM
O=C(Cc1ccccc1Br)N[C@@H](Cc1cccc(C(=O)O)c1)B(O)O [Example 20, (1R)-1-(2-Bromophenylacetylamino)-2-(3-carboxyphenyl)ethyl-1-boronic acid] | – | 0.1 to 1 µM | 0.1 to 1 µM | – | –
O=C(Cc1ccc2ccccc2c1)N[C@@H](Cc1cccc(C(=O)O)c1)B(O)O [Example 23, (1R)-1-(2-naphthalen-2-yl-acetylamino)-2-(3-carboxyphenyl)ethyl-1-boronic acid] | < 0.1 µM | < 0.1 µM | < 0.1 µM | – | –
COc1ccc(CC(=O)N[C@@H](Cc2cccc(C(=O)O)c2)B(O)O)c(Br)c1 [Example 26, (1R)-1-(2-Bromo-4-methoxyphenylacetylamino)-2-(3-carboxyphenyl)ethyl-1-boronic acid] | 0.1 to 1 µM | 0.1 to 1 µM | 0.1 to 1 µM | – | –
O=C(O)COc1cccc(CC(=O)N[C@@H](Cc2cccc(C(=O)O)c2)B(O)O)c1 [Example 27, (1R)-1-(2-(3-carboxymethoxy)phenylacetylamino)-2-(3-carboxyphenyl)ethyl-1-boronic acid] | 0.1 to 1 µM | 0.1 to 1 µM | < 0.1 µM | – | –
COc1ccc(OC)c(CC(=O)N[C@@H](Cc2cccc(C(=O)O)c2)B(O)O)c1 [Example 4, (1R)-1-(2,5-Dimethoxyphenylacetylamino)-2-(3-carboxyphenyl)ethyl-1-boronic acid] | – | 0.1 to 1 µM | > 1 µM | – | –
COc1ccc(CC(=O)N[C@@H](Cc2cccc(C(=O)O)c2)B(O)O)cc1 [Example 25, (1R)-1-(4-Methoxyphenylacetylamino)-2-(3-carboxyphenyl)ethyl-1-boronic acid] | < 0.1 µM | 0.1 to 1 µM | < 0.1 µM | – | –
Cc1ccc(C(=O)O)cc1C[C@H](NC(=O)Cc1cccs1)B(O)O [Example 13, (1R)-1-(2-thiophene-2-yl-acetylamino)-2-(5-carboxy-2-methylphenyl)ethyl-1-boronic acid] | 0.1 to 1 µM | > 1 µM | < 0.1 µM | – | –
O=C(Cc1cccc(C(=O)O)c1)N[C@@H](Cc1cccc(C(=O)O)c1)B(O)O [Example 17, (1R)-1-(3-Carboxyphenylacetylamino)-2-(3-carboxyphenyl)ethyl-1-boronic acid] | – | > 1 µM | 0.1 to 1 µM | – | –
O=C(Cc1ccc(C(F)(F)F)cc1)N[C@@H](Cc1cccc(C(=O)O)c1)B(O)O [Example 9, (1R)-1-(4-Trifluoromethylphenylacetylamino)-2-(3-carboxyphenyl)ethyl-1-boronic acid] | < 0.1 µM | 0.1 to 1 µM | < 0.1 µM | – | –
O=C(Cc1cccc2ccccc12)N[C@@H](Cc1cccc(C(=O)O)c1)B(O)O [Example 15, (1R)-1-(2-naphthalen-1-yl-acetylamino)-2-(3-carboxyphenyl)ethyl-1-boronic acid] | – | > 1 µM | > 1 µM | – | –
O=C(Cc1ccccc1Cl)N[C@@H](Cc1cccc(C(=O)O)c1)B(O)O [Example 24, (1R)-1-(2-Chlorophenylacetylamino)-2-(3-carboxyphenyl)ethyl-1-boronic acid] | > 1 µM | 0.1 to 1 µM | < 0.1 µM | – | –
O=C(Cc1cccc(Cl)c1)N[C@@H](Cc1cccc(C(=O)O)c1)B(O)O [Example 3, (1R)-1-(3-Chlorophenylacetylamino)-2-(3-carboxyphenyl)ethyl-1-boronic acid] | < 0.1 µM | 0.1 to 1 µM | < 0.1 µM | – | –
NCCCOc1cccc(CC(=O)N[C@@H](Cc2cccc(C(=O)O)c2)B(O)O)c1 [Example 31, (1R)-1-{2-[3-(3-Amino-propyloxy)-phenyl]-acetylamino}-2-(3-carboxyphenyl)ethyl-1-boronic acid hydrochloride] | 0.1 to 1 µM | 0.1 to 1 µM | 0.1 to 1 µM | – | –
CC(CO)Oc1cccc(CC(=O)N[C@@H](Cc2cccc(C(=O)O)c2)B(O)O)c1 (stereo partly drawn) [Example 32, (1R)-1-{2-[3-(2-Hydroxy-1-methyl-ethoxy)-phenyl]-acetylamino}-2-(3-carboxyphenyl)ethyl-1-boronic acid] | < 0.1 µM | 0.1 to 1 µM | < 0.1 µM | – | –
Cn1c(CC(=O)N[C@@H](Cc2cccc(C(=O)O)c2)B(O)O)cc2ccccc21 [Example 14] | 0.1 to 1 µM | 0.1 to 1 µM | < 0.1 µM | – | –
O=C(Cc1cc(F)ccc1F)N[C@@H](Cc1cccc(C(=O)O)c1)B(O)O [Example 6, (1R)-1-(2,5-Difluorophenylacetylamino)-2-(3-carboxyphenyl)ethyl-1-boronic acid] | – | 0.1 to 1 µM | < 0.1 µM | – | –
COc1ccc(C(=O)CCC(=O)N[C@@H](Cc2cccc(C(=O)O)c2)B(O)O)cc1 [Example 38, (1R)-1-(4-(4-Methoxy-phenyl)-4-oxo-butyrylamino)-2-(3-carboxyphenyl)ethyl-1-boronic acid] | 0.1 to 1 µM | 0.1 to 1 µM | 0.1 to 1 µM | – | –
O=C(CCCc1cccs1)N[C@@H](Cc1cccc(C(=O)O)c1)B(O)O [Example 35, (1R)-1-(4-Thiophen-2-yl-butyrylamino)-2-(3-carboxyphenyl)ethyl-1-boronic acid] | 0.1 to 1 µM | > 1 µM | 0.1 to 1 µM | – | –
O=C(CCc1cccs1)N[C@@H](Cc1cccc(C(=O)O)c1)B(O)O [Example 10, (1R)-1-(3-thiophene-2-yl-propionylamino)-2-(3-carboxyphenyl)ethyl-1-boronic acid] | 0.1 to 1 µM | > 1 µM | > 1 µM | – | –
O=C(Cc1ccc(Br)cc1)N[C@@H](Cc1cccc(C(=O)O)c1)B(O)O [Example 16, (1R)-1-(4-Bromophenylacetylamino)-2-(3-carboxyphenyl)ethyl-1-boronic acid] | – | > 1 µM | 0.1 to 1 µM | – | –
O=C(Cc1cccc(Br)c1)N[C@@H](Cc1cccc(C(=O)O)c1)B(O)O [Example 7, (1R)-1-(3-Bromophenylacetylamino)-2-(3-carboxyphenyl)ethyl-1-boronic acid] | – | 0.1 to 1 µM | 0.1 to 1 µM | – | –
O=C(CC1CCCCC1)N[C@@H](Cc1cccc(C(=O)O)c1)B(O)O [Example 5, (1R)-1-(Cyclohexylacetylamino)-2-(3-carboxyphenyl)ethyl-1-boronic acid] | – | > 1 µM | > 1 µM | – | –
O=C(Cc1cccs1)N[C@@H](Cc1ccc(Cl)c(C(=O)O)c1)B(O)O [Example 18, (1R)-1-(2-thiophene-2-yl-acetylamino)-2-(3-carboxy-4-chlorophenyl)ethyl-1-boronic acid] | – | 0.1 to 1 µM | < 0.1 µM | – | –
O=C(Cc1ccc(Cl)cc1)N[C@@H](Cc1cccc(C(=O)O)c1)B(O)O [Example 19, (1R)-1-(4-Chlorophenylacetylamino)-2-(3-carboxyphenyl)ethyl-1-boronic acid] | < 0.1 µM | 0.1 to 1 µM | < 0.1 µM | – | –
O=C(CCC(=NO)c1cccs1)N[C@@H](Cc1cccc(C(=O)O)c1)B(O)O [Example 37, (1R)-1-(4-Hydroxyimino-4-thiophen-2-yl-butyrylamino)-2-(3-carboxyphenyl)ethyl-1-boronic acid] | 0.1 to 1 µM | 0.1 to 1 µM | > 1 µM | – | –
